Source: patent US20150285812A1, “Fluorescence-Labelled Fatty Acids and Uses Thereof” (SANOFI, priority 2012, published 2015)

Columns and labels:
HSA [1] = molecular target: T1, HSA (Homo sapiens, UniProt P02768); test: Displacement of NBD derivatives on HSA by natural fatty acids C6 to C16 (fluorescence); format: binding; set-up: key to displacement of NBD C8 (15) bound to HSA / displacement of NBD C10 (16) bound to HSA / displacement of NBD C12 (17) bound to HSA: + stands for displacement; − for no displacement
T1 construct: purchased Sigma Aldrich A1887
Protocol: Dilution series for competition experiments with the fatty acids C6 to C16 were diluted with phosphate-buffered saline solution (DPBS buffer). Geometric dilution series of each fatty acid were prepared in 384 well microplates with a starting concentration of 2500 μM and a dilution factor of 0.33 and also 9 dilution steps. The final volume of each concentration was 80 μl. The plated-out fatty acids were stored in the deep freeze (−25° C.) until use.
For displacement experiments 2.50 ml of a 25 μM HSA solution were used per dye derivative. Due to the subsequent dilution steps the HSA concentration was doubled twice such that 2.50 ml of […] solution were prepared.
The dye concentrations were also doubled twice by the following dilution steps. 2.50 ml of each dye solution were needed. 2.10 ml of the respective dye solution were then mixed with 2.10 ml of the 100 μM HSA solution. The respective concentrations of the solutions halve here once. 50 μl of the mixture per well were introduced into a 96 well microplate.
The fatty acid microplates were brought to room temperature and 50 μl each of the dilution series were pipetted into the HSA-dye mixture. The concentrations of all solution constituents were thereby halved once again. In analogy to the experiments measuring the fluorescence of the fluorescence-labelled derivatives without HSA above, the solutions were pipetted from the 96 well microplate into a 384 well microplate. Absorption was not measured. The fluorescence measurement without a wavelength scan was carried out in analogy to the above-referenced experiment.
A concentration of 25 μM and a binding ratio of the NBD derivatives to HSA of 1:1 were employed for the displacement studies. For each dye derivative an NBD-HSA mixture with a concentration of 25 μM was prepared.

[2] = log D7.4 determination by RP-HPLC, similar to the water/octanol partition coefficient method; format: physicochemical; settings: pH 7.4, RP-HPLC C18, range −1 to +6
Protocol: log D7.4 values were determined by a method similar to the partition coefficient method in a water/octanol mixture and were carried out on an RP-HPLC from Waters Alliance (2795) having a C18 column (2×20 mm) with a gradient of morpholinesulfonic acid buffer (pH 7.4) and acetonitrile. The range was between −1 ([…]) to +6 (lipophilic).

HSA [3] = molecular target: T1, HSA; test: Fluorescence of NBD and dansyl dyes with increasing HSA (FRET effect, emission maxima); format: binding; settings: for change in fluorescence intensity with increasing HSA concentration: NBD derivatives 25 μM, HSA 1.56 to 200 μM, 480-550 nm, pH 7.4
Protocol: Absorption and fluorescence of fluorescence-labelled derivatives and HSA were carried out in a Varioskan™ microplate reader (Thermo Electron Corporation). 96 well (Costar, half area, flat bottom) microplates were used for absorption measurements and 384 well (Greiner Bio One, small volume, black) microplates from Greiner Bio One were used for fluorescence measurements. All measurements were carried out at pH 7.4 and room temperature.
5.00 ml of a 400 μM solution were prepared from the HSA stock solution. From this solution a geometric dilution series with 7 dilution steps, a dilution factor of 0.5 and a final volume of each concentration of 2.5 ml were prepared.
Defined concentrations of the fluorescence-labelled compounds were selected from the preceding experiment without HSA above and double-concentrated solutions thereof were prepared to take into account the later 1:1 dilution. For each fluorescence-labelled compound (12-17; 19-25) 1.00 ml of these double-concentrations was prepared. 50 μl of the dye solutions were introduced into a 96 well microplate and 50 μl each of the HSA dilution series were added. By mixing the solutions the concentrations of dye derivatives and the HSA solution were halved. The measurements of the absorption and fluorescence were carried out in analogy to the above experimental procedure without HSA.
In analogy to the absorption measurement the effect of HSA on the fluorescence of the dyes (12-17; 19-25) was determined. The same concentrations of NBD and dansyl dyes and the same concentration range for HSA as already described above were used.

[4] = NBD-HSA mixture 25 μM, 1:1, competitor natural fatty acid
[5] = NBD compound 25 μM, λex = 480 nm
[6] = dansyl compound 100 μM, λex = 330 nm

T1 sequence (P02768 25-609): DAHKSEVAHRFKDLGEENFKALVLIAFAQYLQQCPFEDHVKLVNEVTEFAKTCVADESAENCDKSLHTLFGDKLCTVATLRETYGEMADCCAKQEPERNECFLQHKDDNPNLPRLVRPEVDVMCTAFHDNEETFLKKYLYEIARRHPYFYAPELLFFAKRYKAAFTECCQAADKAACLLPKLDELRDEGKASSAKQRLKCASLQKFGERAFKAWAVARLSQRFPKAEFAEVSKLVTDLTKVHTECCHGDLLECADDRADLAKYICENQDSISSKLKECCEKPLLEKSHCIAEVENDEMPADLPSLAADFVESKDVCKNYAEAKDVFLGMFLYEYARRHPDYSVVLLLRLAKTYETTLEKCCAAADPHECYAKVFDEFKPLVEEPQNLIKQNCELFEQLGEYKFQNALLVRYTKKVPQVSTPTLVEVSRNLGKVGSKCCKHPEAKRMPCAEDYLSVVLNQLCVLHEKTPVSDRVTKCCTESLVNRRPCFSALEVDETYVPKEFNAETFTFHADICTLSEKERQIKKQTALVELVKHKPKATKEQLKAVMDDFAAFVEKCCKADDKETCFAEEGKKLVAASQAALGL

Row | displacement of NBD C8 (15) bound to HSA (HSA [1]; [4]) | displacement of NBD C8 (15) from HSA (HSA [1]; [4]) | displacement of NBD C10 (16) bound to HSA (HSA [1]; [4]) | displacement of NBD C12 (17) bound to HSA (HSA [1]; [4]) | chromatographic logD [2] | Δλ, shift of emission maximum λem without HSA vs with HSA (HSA [3]; [6]) | SMILES | Δλ, shift of emission maximum λem without HSA vs with HSA (HSA [3]; [5]) | change in fluorescence intensity with increasing HSA concentration (HSA [3]) | further results
1 | + | displaced | unclear | − |  |  | CCCCCCCCCC(=O)O [FA C10, capric acid] |  |  | displacement of NBD C12 (17) from HSA (HSA [1]; [4]): no longer capable of displacing
2 | + | displaced | + | + |  |  | CCCCCCCCCCCC(=O)O [FA C12, lauric acid] |  |  | displacement of NBD C12 (17) from HSA (HSA [1]; [4]): displaced
3 | + | displaced | + | + |  |  | CCCCCCCCCCCCCC(=O)O [FA C14, myristic acid] |  |  | 

Further lines, the compound ahead of its results:

Row | SMILES | displacement of NBD C8 (15) bound to HSA (HSA [1]; [4]) | displacement of NBD C8 (15) from HSA (HSA [1]; [4]) | displacement of NBD C10 (16) bound to HSA (HSA [1]; [4]) | displacement of NBD C12 (17) bound to HSA (HSA [1]; [4]) | chromatographic logD [2] | Δλ, shift of emission maximum λem without HSA vs with HSA (HSA [3]; [6]) | Δλ, shift of emission maximum λem without HSA vs with HSA (HSA [3]; [5]) | change in fluorescence intensity with increasing HSA concentration (HSA [3]) | further results
4 | CCCCCC(=O)O [FA C6, caproic acid] | − | did not displace | − | − |  |  |  |  | displacement of NBD C10 (16) from HSA (HSA [1]; [4]): not displaced
5 | O=C(O)CNc1ccc([N+](=O)[O-])c2nonc12 [NBD C2 (12), 2-(7-nitrobenzo[1,2,5]oxadiazol-4-ylamino)ethanoic acid] |  |  |  |  |  |  | 0 nm | no changes in fluorescence intensity | log D7.4 [2]: < −1
6 | O=C(O)CCCNc1ccc([N+](=O)[O-])c2nonc12 [NBD C4 (13), 4-(7-Nitrobenzo[1,2,5]oxadiazol-4-ylamino)butanoic acid] |  |  |  |  |  |  | 2 nm | no changes in fluorescence intensity | log D7.4 [2]: −0.46
7 | O=C(O)CCCCCNc1ccc([N+](=O)[O-])c2nonc12 [NBD C6 (14), 6-(7-Nitrobenzo[1,2,5]oxadiazol-4-ylamino)hexanoic acid] |  |  |  |  | 0.53 |  | 0 nm | no changes in fluorescence intensity | 
8 | O=C(O)CCCCCCCNc1ccc([N+](=O)[O-])c2nonc12 [NBD C8 (15), 8-(7-Nitrobenzo[1,2,5]oxadiazol-4-ylamino)octanoic acid] |  |  |  |  | 1.29 |  | 10 nm | greatest increase in fluorescence intensity | relative binding affinity of the NBD dye for HSA (HSA [1]; ranking among NBD C8, C10 and C12 from the competition experiments): lowest affinity
9 | CN(C)c1cccc2c(S(=O)(=O)NCCCC(=O)O)cccc12 [dansyl C4 (20), 4-(5-Dimethylaminonaphthalene-1-sulfonylamino)butanoic acid] |  |  |  |  | 1.21 | 88 nm |  |  | 
10 | CN(C)c1cccc2c(S(=O)(=O)NCCCCCC(=O)O)cccc12 [dansyl C6 (21), 6-(5-Dimethylaminonaphthalene-1-sulfonylamino)hexanoic acid] |  |  |  |  | 1.56 | 82 nm |  |  | 
11 | CN(C)c1cccc2c(S(=O)(=O)NCCCCCCCC(=O)O)cccc12 [dansyl C8 (22), 8-(5-Dimethylaminonaphthalene-1-sulfonylamino)octanoic acid] |  |  |  |  | 2.1 | 74 nm |  |  | 
12 | CN(C)c1cccc2c(S(=O)(=O)NCCCCCCCCCC(=O)O)cccc12 [dansyl C10 (23), 10-(5-Dimethylaminonaphthalene-1-sulfonylamino)decanoic acid] |  |  |  |  | 2.74 | 68 nm |  |  | 
13 | CN(C)c1cccc2c(S(=O)(=O)NCCCCCCCCCCCC(=O)O)cccc12 [dansyl C12 (24), 12-(5-Dimethylaminonaphthalene-1-sulfonylamino)dodecanoic acid] |  |  |  |  | 3.49 | 66 nm |  |  | log D7.4 [2]: 3.49
